Reference: US20170008888A1 (KYORIN PHARMACEUTICAL CO., LTD., priority 2014, published 2017)

What was measured:
[1] = system: AMPKa1 or AMPKa2; experiment: Probe-based (AX9989) kinase profiling in Jurkat lysate: AMPKa1 or AMPKa2; type: binding
Outline: (§1)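 Jurkat lysate (50 mM HEPES pH 7.5, 150 mM NaCl, 0.1% Triton X-100, 20 mM MnCl2) pre-incubated 15 min with compound at room temperature, then labeled with 5 μM acyl phosphate ATP probe AX9989. Tryptic probe-labeled peptides streptavidin-captured and quantified by LC/MS; percent inhibition from decreased fragment intensity versus untreated.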

[2] = target: T1, ACK (Homo sapiens, UniProt Q07912); experiment: Probe-based (AX9989) kinase profiling in Jurkat lysate: ACK; type: binding; details: read-out: Kinase inhibition % at indicated screening concentration: ACK; for inhibition at 0.1 µM: screening concentration 0.1 μM; for inhibition at 1 µM: screening concentration 1.0 μM
T1 construct: screened for activity against several kinases in Jurkat cells; endogenous in cells; host or cells: Jurkat cell lysate
T1 sequence (Q07912 whole entry): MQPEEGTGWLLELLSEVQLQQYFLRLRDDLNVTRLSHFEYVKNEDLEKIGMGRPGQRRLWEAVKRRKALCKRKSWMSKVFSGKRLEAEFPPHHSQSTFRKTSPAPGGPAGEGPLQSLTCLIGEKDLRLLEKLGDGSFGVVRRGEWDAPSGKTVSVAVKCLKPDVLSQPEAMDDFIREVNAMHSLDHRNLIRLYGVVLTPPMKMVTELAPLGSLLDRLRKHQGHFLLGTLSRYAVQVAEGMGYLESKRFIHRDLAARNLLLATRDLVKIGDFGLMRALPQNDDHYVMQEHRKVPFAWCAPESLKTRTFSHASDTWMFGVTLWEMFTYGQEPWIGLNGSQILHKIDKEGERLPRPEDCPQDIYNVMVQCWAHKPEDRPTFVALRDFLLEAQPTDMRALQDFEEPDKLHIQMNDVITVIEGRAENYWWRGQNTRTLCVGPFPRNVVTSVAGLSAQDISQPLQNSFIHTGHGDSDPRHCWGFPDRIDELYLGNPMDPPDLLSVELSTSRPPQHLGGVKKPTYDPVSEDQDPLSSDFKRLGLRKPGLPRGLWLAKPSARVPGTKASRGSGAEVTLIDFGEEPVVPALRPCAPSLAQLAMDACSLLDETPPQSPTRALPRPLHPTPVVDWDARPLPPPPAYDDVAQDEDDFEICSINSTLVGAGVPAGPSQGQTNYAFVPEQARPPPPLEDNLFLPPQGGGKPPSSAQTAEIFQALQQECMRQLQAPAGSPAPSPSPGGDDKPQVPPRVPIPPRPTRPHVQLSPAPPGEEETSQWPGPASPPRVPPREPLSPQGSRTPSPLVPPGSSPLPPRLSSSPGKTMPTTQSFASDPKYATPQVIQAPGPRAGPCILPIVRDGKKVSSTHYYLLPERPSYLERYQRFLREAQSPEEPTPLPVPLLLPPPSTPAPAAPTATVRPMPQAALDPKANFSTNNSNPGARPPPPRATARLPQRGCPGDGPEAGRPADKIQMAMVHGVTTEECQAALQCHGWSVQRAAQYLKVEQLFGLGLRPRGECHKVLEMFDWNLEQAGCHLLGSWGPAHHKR
Outline: as §1

[3] = system: AurB or AurC; experiment: Probe-based (AX9989) kinase profiling in Jurkat lysate: AurB or AurC; type: binding
Outline: as §1

[4] = target: T2, ERK5 (Homo sapiens, UniProt Q13164); experiment: Probe-based (AX9989 acyl phosphate ATP probe) kinase profiling in Jurkat lysate: ERK5; type: binding; details: for IC50: calculated from percent inhibition of AX9989 labeling and the screening concentration, Jurkat lysate; for inhibition at 0.1 µM: screening concentration 0.1 μM; for inhibition at 0.1 µM / inhibition at 1 µM: read-out: Kinase inhibition % at indicated screening concentration: ERK5; for inhibition at 1 µM: screening concentration 1.0 μM
T2 construct: screened for activity against several kinases in Jurkat cells; endogenous in cells; host or cells: Jurkat cell lysate
T2 sequence (Q13164 whole entry): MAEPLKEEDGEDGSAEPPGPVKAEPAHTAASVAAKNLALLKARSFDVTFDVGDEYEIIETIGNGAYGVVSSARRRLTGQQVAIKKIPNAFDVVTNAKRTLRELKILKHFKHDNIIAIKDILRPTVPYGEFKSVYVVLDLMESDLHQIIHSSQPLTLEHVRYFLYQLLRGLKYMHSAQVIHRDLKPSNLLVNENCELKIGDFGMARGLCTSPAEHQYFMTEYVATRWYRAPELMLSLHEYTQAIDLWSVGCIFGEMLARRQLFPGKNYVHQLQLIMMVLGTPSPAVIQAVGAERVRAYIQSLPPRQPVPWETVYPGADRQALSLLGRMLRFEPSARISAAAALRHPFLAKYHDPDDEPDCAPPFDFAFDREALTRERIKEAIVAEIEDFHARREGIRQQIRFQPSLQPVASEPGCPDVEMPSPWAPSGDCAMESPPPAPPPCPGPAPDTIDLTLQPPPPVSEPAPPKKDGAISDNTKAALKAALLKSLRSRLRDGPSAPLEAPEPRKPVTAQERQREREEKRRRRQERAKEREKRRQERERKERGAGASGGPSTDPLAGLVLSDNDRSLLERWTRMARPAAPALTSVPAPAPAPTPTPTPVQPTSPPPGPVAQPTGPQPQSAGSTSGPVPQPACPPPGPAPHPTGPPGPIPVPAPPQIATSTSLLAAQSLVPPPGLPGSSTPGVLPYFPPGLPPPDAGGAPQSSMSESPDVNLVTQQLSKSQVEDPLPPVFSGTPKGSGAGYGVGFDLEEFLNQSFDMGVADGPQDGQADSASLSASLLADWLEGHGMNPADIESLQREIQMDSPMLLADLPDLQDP
Outline: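 ERK5 IC50 values came from percent inhibition at the screening concentration, measured as loss of LC/MS signal of probe-labelled active-site peptides. Compound was added for 15 min at room temperature to Jurkat lysate (5 mg/ml, 20 mM MnCl2) before labelling with AX9989 ATP acyl phosphate probe at 5 μM.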

[5] = target: T3, AurA (Homo sapiens, UniProt O14965); experiment: Probe-based (AX9989) kinase profiling in Jurkat lysate: AurA; type: binding; details: read-out: Kinase inhibition % at indicated screening concentration: AurA; for inhibition at 0.1 µM: screening concentration 0.1 μM; for inhibition at 1 µM: screening concentration 1.0 μM
T3 construct: screened for activity against several kinases in Jurkat cells; endogenous in cells; host or cells: Jurkat cell lysate
T3 sequence (O14965 1-403): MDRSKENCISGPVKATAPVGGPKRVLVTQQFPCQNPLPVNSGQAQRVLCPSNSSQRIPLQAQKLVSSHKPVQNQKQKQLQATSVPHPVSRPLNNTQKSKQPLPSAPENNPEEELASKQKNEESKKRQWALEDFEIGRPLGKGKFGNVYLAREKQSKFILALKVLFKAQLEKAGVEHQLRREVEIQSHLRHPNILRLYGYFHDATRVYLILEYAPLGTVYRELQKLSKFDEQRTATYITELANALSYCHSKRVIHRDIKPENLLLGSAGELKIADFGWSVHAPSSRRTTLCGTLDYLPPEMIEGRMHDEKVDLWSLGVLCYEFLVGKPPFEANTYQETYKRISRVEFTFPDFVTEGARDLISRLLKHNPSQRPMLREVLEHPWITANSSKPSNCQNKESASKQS
Outline: as §1

[6] = target: T4, TAO2 (Homo sapiens, UniProt Q9UL54); experiment: Probe-based (AX9989) kinase profiling in Jurkat lysate: TAO2; type: binding; details: read-out: Kinase inhibition % at indicated screening concentration: TAO2; for inhibition at 0.1 µM: screening concentration 0.1 μM; for inhibition at 1 µM: screening concentration 1.0 μM
T4 construct: screened for activity against several kinases in Jurkat cells; endogenous in cells; host or cells: Jurkat cell lysate
T4 sequence (Q9UL54 1-1235): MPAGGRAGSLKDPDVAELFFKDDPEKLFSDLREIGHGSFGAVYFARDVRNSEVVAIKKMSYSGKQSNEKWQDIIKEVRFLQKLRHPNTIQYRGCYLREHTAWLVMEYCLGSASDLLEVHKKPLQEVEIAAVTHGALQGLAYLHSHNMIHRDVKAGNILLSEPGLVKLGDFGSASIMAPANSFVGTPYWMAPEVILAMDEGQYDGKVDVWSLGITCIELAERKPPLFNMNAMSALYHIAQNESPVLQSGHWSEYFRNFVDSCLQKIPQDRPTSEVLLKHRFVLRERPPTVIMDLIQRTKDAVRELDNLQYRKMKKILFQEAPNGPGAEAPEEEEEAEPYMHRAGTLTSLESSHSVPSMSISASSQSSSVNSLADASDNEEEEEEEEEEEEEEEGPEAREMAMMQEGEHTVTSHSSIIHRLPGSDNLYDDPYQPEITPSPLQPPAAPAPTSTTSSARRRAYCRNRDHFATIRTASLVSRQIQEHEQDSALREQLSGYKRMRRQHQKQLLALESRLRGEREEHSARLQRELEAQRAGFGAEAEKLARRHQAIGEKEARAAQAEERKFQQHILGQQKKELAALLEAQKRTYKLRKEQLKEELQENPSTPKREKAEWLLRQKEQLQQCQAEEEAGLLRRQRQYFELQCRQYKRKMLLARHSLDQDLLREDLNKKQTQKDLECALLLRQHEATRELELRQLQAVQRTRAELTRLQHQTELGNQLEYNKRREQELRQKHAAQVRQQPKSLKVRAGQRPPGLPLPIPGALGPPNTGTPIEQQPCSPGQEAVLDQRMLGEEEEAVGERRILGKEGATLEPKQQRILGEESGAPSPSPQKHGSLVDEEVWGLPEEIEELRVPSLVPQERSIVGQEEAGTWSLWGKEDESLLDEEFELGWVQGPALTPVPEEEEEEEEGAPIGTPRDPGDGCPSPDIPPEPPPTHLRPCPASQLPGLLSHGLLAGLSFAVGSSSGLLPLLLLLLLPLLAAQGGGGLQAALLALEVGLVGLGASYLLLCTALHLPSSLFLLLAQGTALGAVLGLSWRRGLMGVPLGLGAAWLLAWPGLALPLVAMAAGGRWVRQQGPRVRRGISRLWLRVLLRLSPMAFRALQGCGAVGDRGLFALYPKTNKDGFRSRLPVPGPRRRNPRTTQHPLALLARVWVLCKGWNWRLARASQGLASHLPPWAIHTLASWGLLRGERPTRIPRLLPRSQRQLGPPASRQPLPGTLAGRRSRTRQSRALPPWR
Outline: as §1

[7] = system: human PBMCs; experiment: Human PBMC TNF-α response to endotoxin (ELISA); type: cell-based; details: 0.1 μg/ml LPS 16 h, read-out: EC50 for the inhibition of the human PBMC TNF-α response to endotoxin, ave. ± S.D.
Method: Human PBMCs (Astarte Biologics, Redmond, Wash.) were seeded at 2e6 cells/ml in RPMI 1640 containing 10% (v/v) charcoal-dextran treated, heat inactivated FBS (Omega Scientific, Tarzana, Calif.), 0.05 mM 2-Mercaptoethanol (Sigma-Aldrich, St. Louis, Mo.), and 1×Pen/Strep Amphotericin B (Lonza, Allendale, N.J.). Cells were pre-treated with test compounds (10 μM down by ⅕ in a 4-point serial dilution series) for 1 h at 37° C. in a humidified atmosphere at 5% CO2. Cells were then stimulated with 0.1 μg/ml lipopolysaccharide (LPS) from E. coli 0111:B4 (EMD Millipore, Billerica, Mass.) for 16 h at 37° C. in a humidified atmosphere at 5% CO2. Supernatant was collected and a 25-fold dilution was analyzed for TNF-α concentration using an ELISA kit from Life Technologies (Grand Island, N.Y.) according to the manufacturer's instructions. Absorbance at 450 nm was read using the Synergy 2 multi-detection microplate reader (BioTek Instruments, Winooski, Vt.).

[8] = target: T5, JAK1 (Homo sapiens, UniProt P23458); experiment: Probe-based (AX9989) kinase profiling in Jurkat lysate: JAK1; type: binding; details: read-out: Kinase inhibition % at indicated screening concentration: JAK1; for inhibition at 0.1 µM: screening concentration 0.1 μM; for inhibition at 1 µM: screening concentration 1.0 μM
T5 construct: screened for activity against several kinases in Jurkat cells; endogenous in cells; host or cells: Jurkat cell lysate
T5 sequence (P23458 whole entry): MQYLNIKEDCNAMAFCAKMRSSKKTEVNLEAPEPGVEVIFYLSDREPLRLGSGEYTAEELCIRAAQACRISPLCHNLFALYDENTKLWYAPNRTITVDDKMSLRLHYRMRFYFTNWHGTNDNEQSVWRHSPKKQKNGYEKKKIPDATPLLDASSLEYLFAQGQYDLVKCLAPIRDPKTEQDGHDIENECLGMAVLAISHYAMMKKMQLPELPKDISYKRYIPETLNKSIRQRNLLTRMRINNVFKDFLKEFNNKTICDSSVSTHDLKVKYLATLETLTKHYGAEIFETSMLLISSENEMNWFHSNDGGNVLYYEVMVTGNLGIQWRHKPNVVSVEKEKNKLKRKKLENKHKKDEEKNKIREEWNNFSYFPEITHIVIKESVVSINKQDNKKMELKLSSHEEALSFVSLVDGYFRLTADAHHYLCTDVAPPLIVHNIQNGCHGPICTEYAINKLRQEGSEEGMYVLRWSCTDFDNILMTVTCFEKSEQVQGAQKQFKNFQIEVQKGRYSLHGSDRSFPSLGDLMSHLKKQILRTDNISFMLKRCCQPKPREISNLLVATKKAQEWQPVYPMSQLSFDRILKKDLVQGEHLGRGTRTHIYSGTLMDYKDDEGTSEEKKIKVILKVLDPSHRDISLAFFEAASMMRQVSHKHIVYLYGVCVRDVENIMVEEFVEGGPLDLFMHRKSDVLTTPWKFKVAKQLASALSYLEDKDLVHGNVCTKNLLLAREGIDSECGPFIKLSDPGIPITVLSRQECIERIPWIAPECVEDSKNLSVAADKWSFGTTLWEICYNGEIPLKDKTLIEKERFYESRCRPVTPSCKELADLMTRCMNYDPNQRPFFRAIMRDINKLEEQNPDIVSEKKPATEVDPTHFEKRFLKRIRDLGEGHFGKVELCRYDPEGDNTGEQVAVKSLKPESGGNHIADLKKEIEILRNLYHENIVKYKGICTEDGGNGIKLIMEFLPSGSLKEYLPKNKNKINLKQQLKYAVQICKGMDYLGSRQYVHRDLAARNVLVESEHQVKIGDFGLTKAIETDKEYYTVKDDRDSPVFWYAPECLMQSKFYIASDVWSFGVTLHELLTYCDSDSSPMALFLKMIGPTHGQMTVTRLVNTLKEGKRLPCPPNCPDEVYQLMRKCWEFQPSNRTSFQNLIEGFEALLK
Outline: as §1

[9] = system: ABL or ARG; experiment: Probe-based (AX9989) kinase profiling in Jurkat lysate: ABL or ARG; type: binding
Outline: as §1

Row | Compound | Kinase inhibition % at indicated screening concentration: AMPKa1 or AMPKa2 ([1]; screening concentration 0.1 μM) | inhibition at 0.1 µM [2] [%] | Kinase inhibition % at indicated screening concentration: AurB or AurC ([3]; screening concentration 0.1 μM) | IC50 [4] [nM] | inhibition at 0.1 µM [4] [%] | inhibition at 0.1 µM [5] [%] | inhibition at 0.1 µM [6] [%] | EC50 [7] [nM] | inhibition at 0.1 µM [8] [%] | Kinase inhibition % at indicated screening concentration: ABL or ARG ([9]; screening concentration 0.1 μM) | Kinase inhibition % at indicated screening concentration: AMPKa1 or AMPKa2 ([1]; screening concentration 1.0 μM) | inhibition at 1 µM [2] [%] | Kinase inhibition % at indicated screening concentration: AurB or AurC ([3]; screening concentration 1.0 μM) | inhibition at 1 µM [4] [%] | inhibition at 1 µM [5] [%] | inhibition at 1 µM [6] [%] | inhibition at 1 µM [8] [%] | Kinase inhibition % at indicated screening concentration: ABL or ARG ([9]; screening concentration 1.0 μM)
1 | CCOc1cc(C(=O)N2CCC(N)C2)ccc1Nc1cc2c(cn1)N(C)C(=O)c1occc1N2C (centres unmarked) [Compound 11] | E (E is ≦35%) | ≤ 35 | E (E is ≦35%) | ≤ 50 | > 90 | ≤ 35 | ≤ 35 | 2520 | ≤ 35 | E (E is ≦35%) | – | – | – | – | – | – | – | –
2 | COc1cccnc1Nc1cc2c(cn1)N(C)C(=O)c1ccccc1N2C [Compound 14] | – | – | – | > 500 | – | – | – | 2850 | – | – | E (E is ≦35%) | ≤ 35 | E (E is ≦35%) | > 90 | ≤ 35 | ≤ 35 | ≤ 35 | E (E is ≦35%)
3 | CCN(CC)CCNC(=O)c1ccc(OC)c(Nc2cc3c(cn2)N(C)C(=O)c2ccccc2N3C)c1 [Compound 16] | – | – | – | 101 to 500 | – | – | – | 1870 | – | – | E (E is ≦35%) | ≤ 35 | E (E is ≦35%) | 75 to 90 | ≤ 35 | ≤ 35 | ≤ 35 | E (E is ≦35%)
4 | Cc1cc(C(=O)N2CC[C@@H](N(C)C)C2)ccc1Nc1cc2c(cn1)N(C)C(=O)c1ccccc1N2C [Compound 32] | E (E is ≦35%) | ≤ 35 | E (E is ≦35%) | ≤ 50 | 75 to 90 | ≤ 35 | ≤ 35 | 6360 | ≤ 35 | E (E is ≦35%) | – | – | – | – | – | – | – | –
5 | CCOc1cc(C(=O)N2CCC(c3c[nH]cn3)CC2)ccc1Nc1cc2c(cn1)N(C)C(=O)c1ccccc1N2C [Compound 35] | E (E is ≦35%) | ≤ 35 | E (E is ≦35%) | 101 to 500 | 35 to 50 | ≤ 35 | ≤ 35 | 6000 | ≤ 35 | E (E is ≦35%) | – | – | – | – | – | – | – | –
6 | COc1ccc(Nc2cc3c(cn2)N(C)C(=O)c2ccccc2N3C)c(C)c1 [Compound 41] | – | – | – | 101 to 500 | – | – | – | 7610 | – | – | E (E is ≦35%) | ≤ 35 | E (E is ≦35%) | 75 to 90 | ≤ 35 | ≤ 35 | ≤ 35 | E (E is ≦35%)
7 | CCOc1cc(C(=O)N2CCN(C(=O)OC(C)(C)C)C[C@@H]2C)ccc1Nc1cc2c(cn1)N(C)C(=O)c1ccccc1N2C [Compound 50] | E (E is ≦35%) | ≤ 35 | E (E is ≦35%) | 101 to 500 | 35 to 50 | ≤ 35 | ≤ 35 | 2580 | ≤ 35 | E (E is ≦35%) | – | – | – | – | – | – | – | –
8 | Cc1c(Nc2cc3c(cn2)N(C)C(=O)c2ccccc2N3C)cnn1C [Compound 59] | – | – | – | 101 to 500 | – | – | – | 5840 | – | – | E (E is ≦35%) | ≤ 35 | E (E is ≦35%) | 75 to 90 | ≤ 35 | ≤ 35 | ≤ 35 | E (E is ≦35%)
